Data taken from ChEMBL document CHEMBL3352595, “Anti-inflammatory secoiridoid glycosides from Gentianella azurea” (Bioorg Med Chem Lett, 2014).

What follows are compounds tested on RAW264.7 (assay: Anti-inflammatory activity in mouse RAW264.7 cells assessed as inhibition of LPS-induced nitric oxide production).
Assay type: functional, cell-based

`C=C[C@H]1[C@H](O[C@@H]2O[C@H](COC(C)=O)[C@@H](O)[C@H](OC(C)=O)[C@H]2OC(C)=O)OC=C2C(=O)OCC[C@H]21` and `C=C[C@H]1[C@H](O[C@@H]2O[C@H](COC(C)=O)[C@@H](OC(C)=O)[C@H](OC(C)=O)[C@H]2O)OC=C2C(=O)OCC[C@H]21` cannot be ordered by IC50: greater than 200 µM for the first, greater than 200 µM for the second.

Going from `C=C[C@H]1[C@H](O[C@@H]2O[C@H](COC(C)=O)[C@@H](OC(C)=O)[C@H](O)[C@H]2OC(=O)c2cccc(O)c2O)OC=C2C(=O)OCC[C@H]21` to `C=C[C@H]1[C@H](O[C@@H]2O[C@H](COC(C)=O)[C@@H](O)[C@H](OC(C)=O)[C@H]2OC(=O)c2cccc(O)c2O)OC=C2C(=O)OCC[C@H]21`, the IC50 rises from 0.69 µM to greater than 200 µM. The first is the more potent here.

`C=C[C@H]1[C@H](O[C@@H]2O[C@H](CO)[C@@H](O)[C@H](O)[C@H]2OC(=O)/C=C/c2ccc(O)cc2)OC=C2C(=O)OCC[C@]21O` and `C=C[C@H]1[C@H](O[C@@H]2O[C@H](CO)[C@@H](OC(=O)c3cccc(O)c3O[C@@H]3O[C@H](CO)[C@@H](O)[C@H](O)[C@H]3O)[C@H](O)[C@H]2O)OC=C2C(=O)OCC[C@H]21` cannot be ordered by IC50: greater than 200 µM for the first, greater than 200 µM for the second.

`C=C[C@H]1[C@H](O[C@@H]2O[C@H](COC(=O)c3cccc(O)c3O[C@@H]3O[C@H](CO)[C@@H](O)[C@H](O)[C@H]3O)[C@@H](O)[C@H](O)[C@H]2OC(=O)c2cccc(O)c2O)OC=C2C(=O)OCC[C@H]21` and `C=C[C@H]1[C@H](O[C@@H]2O[C@H](COC(=O)c3cccc(O)c3O[C@@H]3O[C@H](CO)[C@@H](O)[C@H](O)[C@H]3O)[C@@H](O)[C@H](OC(C)=O)[C@H]2OC(=O)c2cccc(O)c2O)OC=C2C(=O)OCC[C@H]21` cannot be ordered by IC50: greater than 200 µM for the first, greater than 200 µM for the second.

First: C=C[C@H]1[C@H](O[C@@H]2O[C@H](COC(C)=O)[C@@H](OC(C)=O)[C@H](O)[C@H]2OC(C)=O)OC=C2C(=O)OCC[C@H]21
Second: C=C[C@H]1[C@H](O[C@@H]2O[C@H](COC(C)=O)[C@@H](OC(=O)c3cccc(O)c3O[C@@H]3O[C@H](CO)[C@@H](O)[C@H](O)[C@H]3O)[C@H](OC(C)=O)[C@H]2OC(=O)c2cccc(O)c2O)OC=C2C(=O)OCC[C@H]21
The IC50 of the first is 10-fold higher: 52.8 µM for the first, 5.18 µM for the second.

`C=C[C@H]1[C@H](O[C@@H]2O[C@H](COC(=O)c3cccc(O)c3O[C@@H]3O[C@H](CO)[C@@H](O)[C@H](O)[C@H]3O)[C@@H](O)[C@H](O)[C@H]2O)OC=C2C(=O)OCC[C@H]21` was tested, and the IC50 was greater than 200 µM.
